“And” between values parts separate entries of the source, which are not always exact repeats. Equal values may be shown once.
What was measured:
[1] = test system: MDS mouse model; assay: MDS mouse model, combination of KanAS, ATRA and 5-azacytidine, survival; format: in vivo; details: MDS mice, individual mouse; alive = still alive on 24 Mar. 2010
Description: The MDS mouse model described in Omidvar et al. (2007, Cancer Res. 67:11657-67) was used to study the effect of the combination of KanAS, ATRA and 5-azacytidine on MDS.
100 microliters of 1 mg/ml solution of 5-Azacytidine was injected IP to the mice on the day of diagnosis and then on Mondays, Wednesdays and Fridays until death of the mice.
ATRA was administered through a 10 mg 21 day release pellet
The vaccination protocol was as follows: 100 micrograms of DNA (VVACS02 or pVax14 or pVaxKanAS) were administered […] diagnosis (day 0), which corresponded to the day on which the peripheral blood platelet count fell below normal (<10^5/microliter). On day 20 and on day 40, 2×50 micrograms of DNA were injected again.
The mice were randomly divided into four groups after twelve 5-azacytidine injections: • 5-Azacytidine (n=5) • 5-azacytidine+ATRA (n=4) • 5-azacytidine+VVACS02 DNA (n=4) • 5-azacytidine+ATRA+VVACS02 DNA (n=4)

[2] = test system: APL cells; assay: APL mouse model survival, Kaplan-Meier, mice followed for two years; format: in vivo, FVB/N mice; details: Kaplan-Meier survival curves
Description: The effect of different DNA constructs on an APL mouse model was studied using the protocol disclosed in Padua et al. (2003, Nature Medicine 9:1413-1417). Briefly, 10^4 APL cells were injected to FVB/N mice. Then an ATRA pellet, which releases 5 mg/day of ATRA for 21 days, was introduced behind the neck of the mice with a trochar. DNA (2×50 micrograms of plasmid) was injected the day after introducing the ATRA pellet, and every 20 days for a total of three injections. The following DNA constructs were injected to the mice: • the pVaxKanAS construct, also referred to as pVax14; • the pCDNA3PML-RARαFrC construct (VVACS01); • the pVaxPML-RARαFrC construct; and • the pCDNA3PML-RARαASFrC construct (VVACS04).
A pellet purchased from the manufacturer of the ATRA pellet (Innovative Research, Sarasota, USA) was used as a placebo.
The mice were followed for two years and Kaplan-Meier curves were constructed.
The results are shown on FIG. 2 and in Table 1 herebelow. The log-rank (Mantel-Cox) and general Wilcoxon tests were applied to the Kaplan-Meier curves. Both statistical tests led to identical conclusions in terms of significance.

Compound | Days alive from treatment [1] | general Wilcoxon Chi-2 value ([2]; V.S. placebo) | general Wilcoxon significance (p bound) ([2]; V.S. placebo) | log-rank (Mantel-Cox) Chi-2 value ([2]; V.S. placebo) | log-rank (Mantel-Cox) significance (p bound) ([2]; V.S. placebo) | general Wilcoxon Chi-2 value ([2]; V.S. placebo + DNA) | general Wilcoxon significance (p bound) ([2]; V.S. placebo + DNA) | log-rank (Mantel-Cox) Chi-2 value ([2]; V.S. placebo + DNA) | log-rank (Mantel-Cox) significance (p bound) ([2]; V.S. placebo + DNA)
Nc1ncn([C@@H]2O[C@H](CO)[C@@H](O)[C@H]2O)c(=O)n1 [5-azacytidine] | 33 days and Alive on 24 Mar. 2010 (112 days) and 72 days and Alive on 24 Mar. 2010 (75 days) and 37 days | – | – | – | – | – | – | – | –
CC1=C(/C=C/C(C)=C/C=C/C(C)=C/C(=O)O)C(C)(C)CCC1 [ATRA, all-trans retinoic acid] | – | 5.1827E+01 | p < 0.0001 | 6.0018E+01 | p < 0.0001 | 1.6318E+01 | p < 0.0001 | 8.7059E+00 | p < 0.005
